From patent publication US9682962B2, “Pyrazolyl pyrimidinamine compound and application thereof” (SHENYANG SINOCHEM AGROCHEMICALS R&D CO., LTD., priority 2013, dated 2017) come the findings set out here.

The test system of one experiment is wheat powdery mildew. As to the kind of experiment: Protectant activity in vivo (whole plant), wheat powdery mildew. The note with it: for control effect against wheat powdery mildew (%): protectant activity. The protocol: (§1) The method is as followed: The whole plant is used in this test. The compound is dissolved in a proper solvent to get mother solution. The proper solvent is selected from acetone, methanol, DMF and so on according to their dissolving capability to the sample. […] The testing solution is sprayed to the host plant by a special plant sprayer. The plant is inoculated with fungus after 24 hours. According to the infecting characteristic of fungus, the plant is stored in a humidity chamber and then transferred into greenhouse after infection is finished. And the other plants are placed in greenhouse directly.

Another experiment concerns cucumber anthracnose. As to the kind of experiment: Protectant activity in vivo (whole plant), cucumber anthracnose. Conditions: protectant activity. Here is the method:
as §1

The test system of experiment [1] is Green peach aphids (Myzus Persicae Sulzer). In words: Bioactivity test against green peach aphid (airbrush foliar spray). The class given is in vivo. The protocol:
Compounds were dissolved in mixed solvent (acetone:methanol=1:1), and diluted to required concentration with water containing 0.1% of tween 80.
Diamond back moth, armyworm, peach aphid and carmine spider mite were used as targets and the method of spraying by airbrush was used for determination of insecticidal bioassays.
Method: Filter papers were put in culture dishes (Diameter=6 cm), and water was dripped on filter papers for preserving moisture. Green peach aphids (Myzus Persicae Sulzer) were maintained on cabbage. Leaves (Diameter=3 cm) of approximately 15-30 aphids were put in the culture dishes. Bioactivity tests were used the method of Airbrush Foliar Spray, pressure=10 psi (0.7 kg/cm2), spray volume=0.5 mL. The studies were conducted at […] 25±1 C in incubator cabinets with 60±5% RH. Survey the survival aphids after 48 h and calculate the death rates.

In a further experiment the test system is cucumber downy mildew. As to the kind of experiment: Protectant activity in vivo (whole plant), cucumber downy mildew. The note with it: protectant activity. Here is the method:
as §1

Take `Cc1ncnc(NCCc2cnn(C(C)(C)C)c2)c1Cl` [Compound 8]: the “control effect against wheat powdery mildew (%)” value in the experiment on wheat powdery mildew (100 mg/L) and in the experiment on wheat powdery mildew (400 mg/L) was 100% in each case. The “control effect against cucumber anthracnose (%)” value is listed as 60% in the experiment on cucumber anthracnose (6.25 mg/L), 80% in the experiment on cucumber anthracnose (25 mg/L), 90% with cucumber anthracnose (100 mg/L) and 100% in the experiment with cucumber anthracnose (400 mg/L).
With `Cc1ncnc(NCCc2cnn(-c3ccc(F)cc3)c2)c1Cl` [Compound 244], the “control effect against wheat powdery mildew (%)” value in the experiment on wheat powdery mildew (6.25 mg/L) was determined as 50%; in the experiment with wheat powdery mildew (25 mg/L), 80%; in the experiment with wheat powdery mildew (100 mg/L) it was 100%; in the experiment with wheat powdery mildew (400 mg/L), 100%. For the same compound, the results for the “Insecticidal activity against peach aphid (%)” value (from here on “Insecticidal activity … (%)”) in experiment [1] (10 mg/L), in experiment [1] (100 mg/L) and in experiment [1] (600 mg/L) were 65%, 71% and 91%, respectively.
As to `Cc1ncnc(NCCc2cnn(-c3ccc(Cl)cc3Cl)c2)c1Cl` [Compound 261], the “control effect against cucumber downy mildew(%)” value with cucumber downy mildew (12.5 mg/L), with cucumber downy mildew (25 mg/L), with cucumber downy mildew (50 mg/L), in the experiment on cucumber downy mildew (100 mg/L) and with cucumber downy mildew (400 mg/L) was 100% each time. Further, the “control effect against wheat powdery mildew (%)” value came to 50% with wheat powdery mildew (6.25 mg/L), 60% with wheat powdery mildew (25 mg/L), 80% with wheat powdery mildew (100 mg/L) and 100% with wheat powdery mildew (400 mg/L).
As to `Cc1ncnc(NCCc2cnn(-c3ccc(C(F)(F)F)cc3)c2)c1Cl` [Compound 309], the “control effect against wheat powdery mildew (%)” value with wheat powdery mildew (6.25 mg/L) turned out to be 80%; in the experiment with wheat powdery mildew (25 mg/L) it was 85%; in the experiment with wheat powdery mildew (100 mg/L) it was 90%; in the experiment with wheat powdery mildew (400 mg/L), 100%.
`COc1ccc(-n2cc(CCNc3ncnc(C)c3Cl)cn2)cc1` [Compound 312]: the “control effect against cucumber downy mildew(%)” value in the experiment with cucumber downy mildew (25 mg/L), in the experiment on cucumber downy mildew (50 mg/L), with cucumber downy mildew (100 mg/L) and with cucumber downy mildew (400 mg/L) was 100% throughout. Also, the “control effect against wheat powdery mildew (%)” value in the experiment with wheat powdery mildew (6.25 mg/L) turned out to be 95%; in the experiment on wheat powdery mildew (25 mg/L), 100%; with wheat powdery mildew (100 mg/L) it was 100%; in the experiment with wheat powdery mildew (400 mg/L), 100%.
As to `Cc1ncnc(NCCc2cnn(-c3c(Cl)cc(C(F)(F)F)cc3Cl)c2)c1Cl` [Compound 406], the “control effect against wheat powdery mildew (%)” value with wheat powdery mildew (6.25 mg/L) amounted to 90%; in the experiment on wheat powdery mildew (25 mg/L) it was 98%; with wheat powdery mildew (100 mg/L), 100%; in the experiment with wheat powdery mildew (400 mg/L), 100%. In addition, the “Insecticidal activity … (%)” value turned out to be 28% in experiment [1] (10 mg/L), 95% in experiment [1] (100 mg/L) and 100% in experiment [1] (600 mg/L).
For `CCc1ncnc(NCCc2cnn(-c3ccc(F)cc3)c2)c1Cl` [Compound 522], the “Insecticidal activity … (%)” value stood at 33% in experiment [1] (10 mg/L), 96% in experiment [1] (100 mg/L) and 100% in experiment [1] (600 mg/L).
Regarding `CCc1ncnc(NCCc2cnn(-c3ccc(Cl)cc3Cl)c2)c1Cl` [Compound 539], the “control effect against cucumber downy mildew(%)” value with cucumber downy mildew (25 mg/L), with cucumber downy mildew (50 mg/L), in the experiment with cucumber downy mildew (100 mg/L) and in the experiment with cucumber downy mildew (400 mg/L) was 100% each time.
As for `CCc1ncnc(NCCc2cnn(-c3ccc(C)cc3)c2)c1Cl` [Compound 575], the “Insecticidal activity … (%)” value in experiment [1] (10 mg/L) turned out to be 73%; in experiment [1] (100 mg/L), 88%; in experiment [1] (600 mg/L) it was 92%.
Take `CCc1ncnc(NCCc2cnn(-c3ccc(C(F)(F)F)cc3)c2)c1Cl` [Compound 587]: the “Insecticidal activity … (%)” value is given as 93% in experiment [1] (100 mg/L) and 100% in experiment [1] (600 mg/L).
Regarding `CCc1ncnc(NCCc2cnn(-c3ccc(OC)cc3)c2)c1Cl` [Compound 590], the “control effect against cucumber downy mildew(%)” value with cucumber downy mildew (25 mg/L), in the experiment on cucumber downy mildew (50 mg/L), in the experiment with cucumber downy mildew (100 mg/L) and in the experiment with cucumber downy mildew (400 mg/L) was 100% throughout.
For the compound `CCc1ncnc(NCCc2cnn(-c3ccc(OC(F)(F)F)cc3)c2)c1Cl` [Compound 596], the “control effect against wheat powdery mildew (%)” value with wheat powdery mildew (6.25 mg/L) is on record as 95%; in the experiment with wheat powdery mildew (25 mg/L), 100%; with wheat powdery mildew (100 mg/L), 100%; in the experiment on wheat powdery mildew (400 mg/L), 100%. Moreover, the “control effect against cucumber anthracnose (%)” value was determined as 75% in the experiment with cucumber anthracnose (6.25 mg/L), 98% in the experiment on cucumber anthracnose (25 mg/L), 100% with cucumber anthracnose (100 mg/L) and 100% with cucumber anthracnose (400 mg/L).
On to `Fc1ccc(-n2cc(CCNc3ncnc(C(F)F)c3Cl)cn2)cc1` [Compound 800], for which the “control effect against cucumber downy mildew(%)” value with cucumber downy mildew (25 mg/L) came out at 98%; in the experiment with cucumber downy mildew (50 mg/L), 100%; with cucumber downy mildew (100 mg/L), 100%; in the experiment with cucumber downy mildew (400 mg/L), 100%. Also, the “control effect against wheat powdery mildew (%)” value with wheat powdery mildew (6.25 mg/L) is recorded as 95%; in the experiment on wheat powdery mildew (25 mg/L) it was 100%; with wheat powdery mildew (100 mg/L), 100%; in the experiment with wheat powdery mildew (400 mg/L), 100%. In addition, the “Insecticidal activity … (%)” value in experiment [1] (10 mg/L) is 71%; in experiment [1] (100 mg/L) it was 100%; in experiment [1] (600 mg/L), 100%.
For the compound `FC(F)c1ncnc(NCCc2cnn(-c3ccc(Cl)cc3)c2)c1Cl` [Compound 815], the “control effect against wheat powdery mildew (%)” value in the experiment on wheat powdery mildew (6.25 mg/L) amounted to 80%; with wheat powdery mildew (25 mg/L), 100%; with wheat powdery mildew (100 mg/L), 100%; with wheat powdery mildew (400 mg/L) it was 100%. For the same compound, the “Insecticidal activity … (%)” value in experiment [1] (10 mg/L) turned out to be 41%; in experiment [1] (100 mg/L) it was 94%; in experiment [1] (600 mg/L), 100%.
In the case of `Cc1ccc(-n2cc(CCNc3ncnc(C(F)F)c3Cl)cn2)cc1` [Compound 853], the “control effect against cucumber downy mildew(%)” value with cucumber downy mildew (25 mg/L) is 80%; in the experiment on cucumber downy mildew (50 mg/L), 100%; in the experiment on cucumber downy mildew (100 mg/L), 100%; in the experiment with cucumber downy mildew (400 mg/L), 100%.
`COc1ccc(-n2cc(CCNc3ncnc(C(F)F)c3Cl)cn2)cc1` [Compound 868]: the “control effect against cucumber downy mildew(%)” value turned out to be 85% in the experiment with cucumber downy mildew (12.5 mg/L); 100% with cucumber downy mildew (25 mg/L); 100% with cucumber downy mildew (50 mg/L); 100% in the experiment with cucumber downy mildew (100 mg/L); 100% in the experiment on cucumber downy mildew (400 mg/L). For the same compound, the “control effect against wheat powdery mildew (%)” value in the experiment with wheat powdery mildew (6.25 mg/L), in the experiment on wheat powdery mildew (25 mg/L), with wheat powdery mildew (100 mg/L) and with wheat powdery mildew (400 mg/L) was 100% each time. Besides, in the experiment with wheat powdery mildew (1.6 ppm), the “protectant activity against wheat powdery mildew in vivo” value was 80%.
Turning to `FC(F)c1ncnc(NCCc2cnn(-c3ccc(OC(F)(F)F)cc3)c2)c1Cl` [Compound 874], the “control effect against wheat powdery mildew (%)” value in the experiment on wheat powdery mildew (6.25 mg/L), with wheat powdery mildew (25 mg/L), in the experiment with wheat powdery mildew (100 mg/L) and in the experiment with wheat powdery mildew (400 mg/L) was 100% in each case. Also, the “control effect against cucumber anthracnose (%)” value in the experiment with cucumber anthracnose (0.78 mg/L) came out at 0%; in the experiment with cucumber anthracnose (1.56 mg/L), 20%; in the experiment on cucumber anthracnose (3.13 mg/L) it was 60%; in the experiment with cucumber anthracnose (6.25 mg/L), 98%; with cucumber anthracnose (25 mg/L), 100%; in the experiment on cucumber anthracnose (100 mg/L), 100%. Also, the “control effect against cucumber anthracnose (%)” value with cucumber anthracnose (400 mg/L) is 100%.
For `COc1ccc(-n2cc(CCNc3nc(C)nc(C)c3Cl)cn2)cc1` [Compound 1424], the “control effect against cucumber downy mildew(%)” value in the experiment on cucumber downy mildew (25 mg/L) amounted to 98%; with cucumber downy mildew (50 mg/L), 100%; with cucumber downy mildew (100 mg/L) it was 100%; in the experiment on cucumber downy mildew (400 mg/L), 100%.
As to `CCc1ncnc(NCCc2cnn(-c3ncccc3Cl)c2)c1Cl` [Compound 4733], the “Insecticidal activity … (%)” value in experiment [1] (10 mg/L) was determined as 88%; in experiment [1] (100 mg/L) it was 100%; in experiment [1] (600 mg/L), 100%. The “control against Green Peach Aphid (death rate)” value in experiment [1] (10 ppm, after 48 h) is “more than 80%”.
`FC(F)c1ncnc(NCCc2cnn(Cc3ccc(Cl)cc3)c2)c1Cl` [Compound 5935]: the “control effect against cucumber downy mildew(%)” value amounted to 50% with cucumber downy mildew (12.5 mg/L); 95% in the experiment on cucumber downy mildew (25 mg/L); 100% in the experiment on cucumber downy mildew (50 mg/L); 100% in the experiment on cucumber downy mildew (100 mg/L); 100% with cucumber downy mildew (400 mg/L). The “Insecticidal activity … (%)” value in experiment [1] (10 mg/L) stood at 61%; in experiment [1] (100 mg/L) it was 56%; in experiment [1] (600 mg/L) it was 100%.
